Measured values: US7999108B2, “Benzyl amines, a process for their production and their use as anti-inflammatory agents” (Bayer Schering Pharma AG, priority 2006, dated 2011)

Tests used:
[1] = tested on: secretion of cytokine IL-8 in human monocyte cell line THP-1 triggered by lipopolysaccharide (LPS); experiment: Inhibition of LPS-triggered IL-8 secretion in THP-1 cells (ELISA); format: cell-based; settings: IL-8 in supernatant by ELISA, read-out: IC50(IL8)
Protocol: The concentration of the cytokines was determined in the supernatant by means of commercially available ELISA kits.

[2] = target: T1, glucocorticoid receptor (GR) (Homo sapiens, UniProt P04150); experiment: Binding to the glucocorticoid receptor (GR), recombinantly produced receptor, Sf9 cytosol preparations; settings: recombinant GR, cytosol of baculovirus-infected Sf9 cells, reference [3H]-dexamethasone
T1 construct: made in house; host or cells: Sf9 insect cells infected with recombinant baculovirus; cytosol preparation
T1 sequence (P04150 1-777): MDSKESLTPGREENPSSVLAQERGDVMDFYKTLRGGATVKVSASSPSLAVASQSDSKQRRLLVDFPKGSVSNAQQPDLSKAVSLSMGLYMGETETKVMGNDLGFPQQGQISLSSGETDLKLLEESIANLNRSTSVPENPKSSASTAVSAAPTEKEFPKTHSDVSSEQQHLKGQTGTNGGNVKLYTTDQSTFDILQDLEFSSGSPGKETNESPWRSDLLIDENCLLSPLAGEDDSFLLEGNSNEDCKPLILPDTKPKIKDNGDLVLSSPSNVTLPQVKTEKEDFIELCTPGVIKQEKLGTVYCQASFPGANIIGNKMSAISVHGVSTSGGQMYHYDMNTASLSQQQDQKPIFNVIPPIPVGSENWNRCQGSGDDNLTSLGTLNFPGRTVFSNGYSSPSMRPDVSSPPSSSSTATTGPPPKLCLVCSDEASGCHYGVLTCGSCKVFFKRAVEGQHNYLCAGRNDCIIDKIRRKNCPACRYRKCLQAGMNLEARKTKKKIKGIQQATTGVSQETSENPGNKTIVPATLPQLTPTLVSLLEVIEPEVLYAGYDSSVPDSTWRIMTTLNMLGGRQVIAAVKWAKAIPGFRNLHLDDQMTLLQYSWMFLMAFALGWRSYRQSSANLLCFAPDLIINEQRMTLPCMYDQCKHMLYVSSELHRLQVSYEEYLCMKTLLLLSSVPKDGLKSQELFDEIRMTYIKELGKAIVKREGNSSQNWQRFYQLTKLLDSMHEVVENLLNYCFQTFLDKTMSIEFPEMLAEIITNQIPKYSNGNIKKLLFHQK
Excerpt: The binding of the substances to the glucocorticoid receptor (GR) and other steroid hormone receptors (mineral corticoid receptor (MR), progesterone receptor (PR) and androgen receptor (AR)) is examined with the aid of recombinantly produced receptors. Cytosol preparations of Sf9 cells, which had been infected with recombinant baculoviruses, which code for the GR, are used for the binding studies. In comparison to reference substance [^3H]-dexamethasone, the substances show a high to very high affinity to GR.

IC50 [1]: 25 nM
IC50 [2]: 64 nM
SMILES: COc1cccc(C(Nc2cccc3nc(C)ccc23)C(O)(CCl)C(F)(F)F)c1 (centres unmarked) [Example 3]
